Like-named read-outs stand apart in the source and are kept apart here.
Key:
Format in all cases: in vivo, rat
CIS model rats [1] = assay: Experiment 4: acute phase effect of MK-801 and SA4503 on clozapine-induced sialorrhea; settings: total of 3 times, 1 hour after final administration
Procedure: (§1) Water and feed were limited from 1 hour before the saliva amount measurement.
(§2) As a method for measuring the amount of saliva, a small piece of cotton ball was placed in the mouth of the restrained rat and swabbed for 10 seconds (the saliva was absorbed into the cotton ball). This was repeated three times, and the mass change of the cotton ball was measured. The mass change was measured as the saliva amount collected over a total of 30 seconds.
The alleviating effect (acute phase effect) on clozapine-induced sialorrhea by a selective NMDA receptor antagonist MK-801 and a selective sigma-1 receptor agonist SA4503 were investigated. Experiment 4 was performed on CIS model rats of groups A to C as follows.
• Group A (control): Intraperitoneal administration of saline (1 mL/kg) for a total of 3 times • Group B: Intraperitoneal administration of MK-801 (0.1 mg/kg) for a total of 3 times • Group C: Intraperitoneal administration of SA4503 (1 mg/kg) for a total of 3 times
Note that the intraperitoneal administration was performed once in the morning and once in the afternoon on day 8 and once in the morning on day 9 for a total of 3 times. The saliva amount was measured 1 hour after the final administration.

CIS model rats [2] = assay: Experiment 5: MK-801 in combination with NMDA receptor agonists D-serine or Glycine in CIS model rats; settings: 3 times; for reduction in saliva amount by MK-801, compared to group B / resulting saliva amount relative to group A (control): 900 mg/kg oral, 1 hour later MK-801 0.1 mg/kg intraperitoneal; for reduction in saliva amount by MK-801, compared to group B: D-serine p<0.05, glycine p<0.01; for resulting saliva amount relative to group A (control): day 9
Procedure: as §1, §2
Experiment 5 was performed on CIS model rats of groups A to D as follows.
• Group A (control): The solvent (5 mL/kg) was orally administered, and then 1 hour later, saline (1 mL/kg) was intraperitoneally administered. This administration was performed for a total of 3 times. • Group B: The solvent (5 mL/kg) was orally administered, and then 1 hour later, MK-801 (0.1 mg/kg) was intraperitoneally administered. This administration was performed for a total of 3 times. • Group C: D-serine (900 mg/kg) was orally administered, and then 1 hour later, MK-801 (0.1 mg/kg) was intraperitoneally administered. This administration was performed for a total of 3 times. • Group D: Glycine (900 mg/kg) was orally administered, and then 1 hour later, MK-801 (0.1 mg/kg) was intraperitoneally administered. This administration was performed for a total of 3 times.
Note that the administration was performed once in the morning and once in the afternoon on day 8 and once in the morning on day 9 for a total of 3 times. The saliva amount was measured 1 hour after the final administration.

CIS model rats [3] = settings: group C
Procedure: as §1, §2
The dose and period of administration of the NMDA receptor antagonist dextromethorphan (DXM) were investigated using the above-described CIS model animals (CIS model rats). Experiment 1 was performed on CIS model rats of groups A to C as follows.
The saliva amount was measured before drug administration on day 14 (24 hours after drug administration up to day 13).

CIS model rats [4] = settings: group B, DXM 30 mg/kg/day intraperitoneal on days 8 and 9 after clozapine 100 mg/kg/day days 1-7; p<0.01
Procedure: as §1, §2
In the above Experiment 1, the saliva amount was measured 24 hours after DXM administration. […] The following studies were performed on the acute phase effect of dextromethorphan (DXM) using the above-described CIS model animals (CIS model rats).
Swabs were conducted on a daily basis to accustom the model animals with saliva measurements.
• Group A: Intraperitoneal administration of saline (1 mL/kg) once per day • Group B: Intraperitoneal administration of DXM (30 mg/kg/day) once per day
On Day 9, the saliva amount was measured 1 hour after DXM administration.

CIS model rats [5] = settings: for change in saliva amount from day 7 to day 9 (1 hour after administration): total of 3 times
Procedure: as §1, §2
The dose of dextromethorphan (DXM) was changed to examine the dose-dependency of clozapine-induced sialorrhea suppression effect.
The following studies were performed on the dose-dependency of the acute phase effect of DXM using the above-described CIS model animals (CIS model rats).
Note that swabs were performed on days 5 and 6 to accustom the model animals with the saliva measurement.
• Group A: Intraperitoneal administration of saline (1 mL/kg) for a total of 3 times • Group B: Intraperitoneal administration of saline (1 mL/kg) for a total of 3 times • Group C: Intraperitoneal administration of DXM (3 mg/kg) for a total of 3 times • Group D: Intraperitoneal administration of DXM (30 mg/kg) for a total of 3 times • Group E: Intraperitoneal administration of DXM (60 mg/kg) for a total of 3 times
The agent of the above dose was administered once in the morning and once in the afternoon on day 8 and once in the morning on day 9 for a total of 3 times. The saliva amount was measured 1 hour after the final administration.

male Wister rats = assay: Creation of CIS model animals: saliva amount after oral clozapine; settings: for saliva amount: 7 days
Procedure: CIS model animals were created with reference to previous studies (Ishikawa S, J. Pharmacol. Exp. Ther., 2020, November; 375(2): 376-384).
As experimental animals, 6 to 8-week-old male Wister rats (made by CLEA Japan, Inc.) were used. The animals were freely ingested and fed on water and normal feed except for the period of time from 1 hour before the saliva amount measurement described below to the measurement.
as §1, §2

`C[C@]12N[C@H](Cc3ccccc31)c1ccccc12` [MK-801, dizocilpine (MK-801)] was tested, and the “saliva amount on day 9 compared to group A (control)” value (CIS model rats [1]; group B, MK-801 0.1 mg/kg intraperitoneal, p<0.01) was “significantly reduced” and the “saliva amount on day 9 compared to group A (control)” value (CIS model rats [2]; group B, solvent oral then MK-801 0.1 mg/kg intraperitoneal, p<0.05) was “significantly reduced”.
In the case of `NCC(=O)O` [glycine, Glycine], the “reduction in saliva amount by MK-801, compared to group B” value (CIS model rats [2]) was “significantly antagonized” and the “resulting saliva amount relative to group A (control)” value (CIS model rats [2]) was “same level as that in group A”.
In the case of `COc1ccc(CCN2CCN(CCCc3ccccc3)CC2)cc1OC` [SA4503], the “saliva amount on day 9 compared to group A (control)” value (CIS model rats [1]; group C, SA4503 1 mg/kg intraperitoneal, p<0.05) was “significantly reduced”.
`COc1ccc2c(c1)[C@]13CCCC[C@@H]1[C@H](C2)N(C)CC3` [dextromethorphan] was tested, and the “change in saliva amount on day 14 based on the saliva amount on day 7” value (CIS model rats [3]; DXM 30 mg/kg/day intraperitoneal + clozapine, compared to groups A and B, p<0.01) was “significantly reduced”, the “saliva amount on day 14” value (CIS model rats [3]; DXM 30 mg/kg/day intraperitoneal on days 8 to 13 in addition to clozapine 100 mg/kg/day, 24 hours after administration) was “reduction of saliva amount was observed” and the “saliva amount at 1 hour after administration on day 9” value (CIS model rats [4]) was “significantly reduced”. For the same molecule, the “change in saliva amount from day 7 to day 9, group E compared to group C” value (CIS model rats [5]; DXM 60 mg/kg compared to DXM 3 mg/kg, intraperitoneal, 3 times, p<0.01) was “significantly reduced”, the “dose-dependency of clozapine-induced sialorrhea suppression effect” value (CIS model rats [5]; DXM 3, 30, 60 mg/kg intraperitoneal) was “dose-dependent” and the “change in saliva amount from day 7 to day 9 (1 hour after administration)” value (CIS model rats [5]; group D, DXM 30 mg/kg intraperitoneal, p<0.05) was “significantly reduced”. For the same molecule, the “change in saliva amount from day 7 to day 9 (1 hour after administration)” value (CIS model rats [5]; group E, DXM 60 mg/kg intraperitoneal, p<0.001) was “significantly reduced”.
With `CN1CCN(C2=Nc3cc(Cl)ccc3Nc3ccccc32)CC1` [clozapine] the saliva amount (male Wister rats; 25 mg/kg/day orally once per day) was “did not increase”, the saliva amount (male Wister rats; 50 mg/kg/day orally once per day, from day 3 of administration) was “increased significantly” and the saliva amount (male Wister rats; 100 mg/kg/day orally once per day, from day 3 of administration) was “increased significantly”. The “amount of saliva secretion” value (male Wister rats; single oral dose of 25, 50 or 100 mg/kg/day, measured 4 times per day, every 6 hours from 1 hour after administration) was “no increase in the amount of saliva secretion was observed”.
For `N[C@H](CO)C(=O)O` [D-serine], the “reduction in saliva amount by MK-801, compared to group B” value (CIS model rats [2]) was “significantly antagonized” and the “resulting saliva amount relative to group A (control)” value (CIS model rats [2]) was “same level as that in group A”.

— US20260174748A1, “AGENT FOR ALLEVIATING CLOZAPINE-INDUCED SIALORRHEA” (National University Corporation Chiba University, priority 2022, published 2026)
